Results published in paper PMC8003796, “Identification of Anti-Severe Acute Respiratory Syndrome-Related Coronavirus 2 (SARS-CoV-2) Oxysterol Derivatives In Vitro” (International Journal of Molecular Sciences, 2021).

Key:
in vitro = details: African green monkey
SARS-CoV-2 [1] = assay: SARS-CoV-2 infection assay, viral RNA in culture supernatant by real-time RT-PCR; assay type: cell-based, SARS-CoV-2 Wk-521 strain; details: 24 h post-inoculation; for IC90: Severe acute respiratory syndrome coronavirus 2, read-out: IC90 (90% maximal inhibitory concentration); for IC90 / IC50: viral RNA in culture supernatant, VeroE6/TMPRSS2 cells; for IC50: Severe acute respiratory syndrome coronavirus 2, read-out: IC50 (50% maximal inhibitory concentration); for effect of pathway inhibitors on viral RNA (in words): 10 μM
VeroE6/TMPRSS2 cells = assay: Cell viability by MTT assay; details: up to 15 μM
SARS-CoV-2 [2] = assay: Viral N protein by indirect immunofluorescence; assay type: cell-based, SARS-CoV-2 Wk-521 strain; details: 10 μM RDV, 30 μM cholesterol, 30 μM 7-KC, 10 μM Oxy133, 10 μM Oxy210
SARS-CoV-2 [3] = assay: Virus-induced cytopathic effect (CPE) viewed under a microscope; assay type: cell-based, SARS-CoV-2 Wk-521 strain; details: 48 h post-inoculation; 10 μM RDV, 30 μM cholesterol, 30 μM 7-KC, 10 μM Oxy133, 10 μM Oxy210

| SMILES | CC50 (in vitro) [µM] | IC90 (SARS-CoV-2 [1]) [µM] | IC50 (SARS-CoV-2 [1]) [µM] | effect on viral RNA (in words) (SARS-CoV-2 [1]; concentrations up to 30 μM) | further results |
| --- | --- | --- | --- | --- | --- |
| CC(C)CC[C@H](O)[C@@H](C)[C@H]1CC[C@H]2[C@@H]3CC=C4C[C@@H](O)CC[C@]4(C)[C@H]3CC[C@]12C [22(S)-OHC, 22(S)-hydroxycholesterol] | > 30 | > 30 | > 30 | did not show apparent reductions in viral RNA | – |
| C[C@]12CC[C@H](O)C[C@@H]1CC[C@@H]1[C@@H]2CC[C@@]2(C)[C@H]1CC[C@@H]2[C@](C)(O)CCc1ccc(F)cc1 [Oxy186] | > 15 | > 15 | 7.4 | – | cytotoxicity / cell viability (in words) (VeroE6/TMPRSS2 cells): No significant cytotoxicity; maximum reduction in viral RNA as compared to control (SARS-CoV-2 [1]; 12 μM): 83%; effect on viral RNA level (in words) (SARS-CoV-2 [1]; semi-synthetic oxysterols, up to 15 μM): reduced viral RNA level in a dose-dependent manner |
| CC(C)CCC[C@@H](C)[C@H]1CC[C@H]2[C@@H]3CC=C4C[C@@H](O)CC[C@]4(C)[C@H]3CC[C@]12C [Cholesterol, reference compound] | > 30 | > 30 | > 30 | did not show apparent reductions in viral RNA | effect on virus propagation / spread of infection, N protein (in words) (SARS-CoV-2 [2]): but not cholesterol, reduced; effect on SARS-CoV-2-induced CPE (in words) (SARS-CoV-2 [3]): but not cholesterol, reduced the SARS-CoV-2-induced CPE |
| CS(=O)(=O)c1ccc(C(=O)Nc2ccc(Cl)c(-c3ccccn3)c2)c(Cl)c1 [GDC0449, reference compound] | – | – | – | – | effect of pathway inhibitors on viral RNA (in words) (SARS-CoV-2 [1]): did not decrease the viral RNA levels |
| CC(C)[C@@H](O)CC[C@@H](C)[C@H]1CC[C@H]2[C@@H]3CC=C4C[C@@H](O)CC[C@]4(C)[C@H]3CC[C@]12C [24(S)-OHC, 24(S)-hydroxycholesterol] | > 30 | > 30 | 1.3 | – | reduction of the production of viral RNA as compared to control (SARS-CoV-2 [1]; natural oxysterols, concentrations up to 30 μM): 80%–86% |
| CC(C)CCC[C@@H](C)[C@H]1CC[C@H]2[C@@H]3CC=C4[C@@H](O)[C@@H](O)CC[C@]4(C)[C@H]3CC[C@]12C [4-beta-OHC, 4beta-hydroxycholesterol] | > 30 | > 30 | > 30 | did not show apparent reductions in viral RNA | – |
| NC(=O)c1ccc(-c2nc(-c3ccc4c(c3)OCO4)c(-c3ccccn3)[nH]2)cc1 [SB431542, reference compound] | – | – | – | – | effect of pathway inhibitors on viral RNA (in words) (SARS-CoV-2 [1]): did not significantly inhibit the production of viral RNA |
